Test results reported in patent US20140024527A1, “HERBICIDAL PYRAZINONES” (E I DU DE NEMOURS AND COMPANY, priority 2011, published 2014).

Tests used:
Type in all cases: in vivo
[1] = system: pigweed (Amaranthus retroflexus); assay: Test A postemergence; details: 0 to 100 scale, 0 no effect, 100 complete control, approx. 10 days
Source text: (§1) Seeds of barnyardgrass (Echinochloa crus-galli), large crabgrass (Digitaria sanguinalis), giant foxtail (Setaria faberii), morningglory (Ipomoea spp.), pigweed (Amaranthus retroflexus), velvetleaf (Abutilon theophrasti), wheat (Triticum aestivum) and corn (Zea mays) were planted into a blend of loam soil and sand and treated preemergence with a directed soil spray using test chemicals formulated in a non-phytotoxic solvent mixture which included a surfactant. At the same time these species were also treated with postemergence applications of test compounds formulated in the same manner. Plants ranged in height from 2 to 10 cm and were in the one- to two-leaf stage for the postemergence treatments. Treated plants and untreated controls were maintained in a greenhouse for approximately 10 days, after which time all treated plants were compared to untreated controls and visually evaluated for injury. Plant response ratings, summarized in Table A, are based on a 0 to 100 scale where 0 is no effect and 100 is complete control.

[2] = system: large crabgrass (Digitaria sanguinalis); assay: Test A postemergence; details: 0 to 100 scale, 0 no effect, 100 complete control, approx. 10 days
Source text: as §1

[3] = system: giant foxtail (Setaria faberii); assay: Test A postemergence; details: 0 to 100 scale, 0 no effect, 100 complete control, approx. 10 days
Source text: as §1

[4] = system: morningglory (Ipomoea spp.); assay: Test A postemergence; details: 0 to 100 scale, 0 no effect, 100 complete control, approx. 10 days
Source text: as §1

[5] = system: barnyardgrass (Echinochloa crus-galli); assay: Test A postemergence; details: 0 to 100 scale, 0 no effect, 100 complete control, approx. 10 days
Source text: as §1

[6] = system: velvetleaf (Abutilon theophrasti); assay: Test A postemergence; details: 0 to 100 scale, 0 no effect, 100 complete control, approx. 10 days
Source text: as §1

[7] = system: wheat (Triticum aestivum); assay: Test A postemergence; details: 0 to 100 scale, 0 no effect, 100 complete control, approx. 10 days
Source text: as §1

corn (Zea mays) [8] = assay: Test A postemergence; details: 0 to 100 scale, 0 no effect, 100 complete control, approx. 10 days
Source text: as §1

[9] = system: barnyardgrass (Echinochloa crus-galli); assay: Test B flooded paddy test; details: Flood
Source text: (§2) Plant species in the flooded paddy test consisted of rice (Oryza sativa), umbrella sedge (Cyperus difformis), ducksalad (Heteranthera limosa) and barnyardgrass (Echinochloa crus-galli) grown to the 2-leaf stage for testing. At time of treatment, test pots were flooded to 3 cm above the soil surface, treated by application of test compounds directly to the paddy water, and then maintained at that water depth for the duration of the test. Treated plants and controls were maintained in a greenhouse for 13 to 15 days, after which time all species were compared to controls and visually evaluated. Plant response ratings, summarized in Table B, are based on a scale of 0 to 100 where 0 is no effect and 100 is complete control. A dash (-) response means no test result.

[10] = system: ducksalad (Heteranthera limosa); assay: Test B flooded paddy test; details: Flood, scale 0 to 100
Source text: as §2

rice (Oryza sativa) = assay: Test B flooded paddy test; details: Flood, scale 0 to 100
Source text: as §2

[11] = system: umbrella sedge (Cyperus difformis); assay: Test B flooded paddy test; details: Flood, scale 0 to 100
Source text: as §2

[12] = system: pigweed (Amaranthus retroflexus); assay: Test A preemergence; details: 0 to 100 scale, 0 no effect, 100 complete control, approx. 10 days
Source text: as §1

[13] = system: large crabgrass (Digitaria sanguinalis); assay: Test A preemergence; details: 0 to 100 scale, 0 no effect, 100 complete control, approx. 10 days
Source text: as §1

[14] = system: giant foxtail (Setaria faberii); assay: Test A preemergence; details: 0 to 100 scale, 0 no effect, 100 complete control, approx. 10 days
Source text: as §1

[15] = system: morningglory (Ipomoea spp.); assay: Test A preemergence; details: 0 to 100 scale, 0 no effect, 100 complete control, approx. 10 days
Source text: as §1

[16] = system: barnyardgrass (Echinochloa crus-galli); assay: Test A preemergence; details: 0 to 100 scale, 0 no effect, 100 complete control, approx. 10 days
Source text: as §1

[17] = system: velvetleaf (Abutilon theophrasti); assay: Test A preemergence; details: 0 to 100 scale, 0 no effect, 100 complete control, approx. 10 days
Source text: as §1

[18] = system: wheat (Triticum aestivum); assay: Test A preemergence; details: 0 to 100 scale, 0 no effect, 100 complete control, approx. 10 days
Source text: as §1

corn (Zea mays) [19] = assay: Test A preemergence; details: 0 to 100 scale, 0 no effect, 100 complete control, approx. 10 days
Source text: as §1

[20] = 250 g ai/ha, scale 0 to 100 (0 no effect, 100 complete control)

COCCn1c(-c2cccc(F)c2)c(Cl)nc(C(=O)C2=C(O)CCCC2=O)c1=O [Compound 7, 5-chloro-6-(3-fluorophenyl)-3-[(2-hydroxy-6-oxo-1-cyclohexen-1-yl)carbonyl]-1-(2-methoxyethyl)-2(1H)pyrazinone]
40: Plant response rating, Ducksalad ([10]; 62 g ai/ha)
80: Plant response rating, Pigweed ([1]; 125 g ai/ha) | Plant response rating, Morningglory ([4]; 125 g ai/ha) | Plant response rating, Barnyardgrass ([5]; 500 g ai/ha) | Plant response rating, Ducksalad ([10]; 250 g ai/ha)
20: Plant response rating, Barnyardgrass ([5]; 125 g ai/ha) | Plant response rating, Corn (corn (Zea mays) [8]; 500 g ai/ha) | Plant response rating, Barnyardgrass [9, 20] | Plant response rating, Sedge, Umbrella ([11]; 62 g ai/ha) | Plant response rating, Morningglory ([15]; 500 g ai/ha) | Plant response rating, Velvetleaf ([17]; 500 g ai/ha)
15: Plant response rating, Rice (rice (Oryza sativa); 250 g ai/ha)
75: Plant response rating, Sedge, Umbrella ([11]; 250 g ai/ha)
90: Plant response rating, Pigweed ([1]; 500 g ai/ha) | Plant response rating, Morningglory ([4]; 500 g ai/ha)
0: Plant response rating, Crabgrass, Large ([2]; 125 g ai/ha) | Plant response rating, Foxtail, Giant ([3]; 125 g ai/ha) | Plant response rating, Foxtail, Giant ([3]; 500 g ai/ha) | Plant response rating, Wheat ([7]; 125 g ai/ha) | Plant response rating, Wheat ([7]; 500 g ai/ha) | Plant response rating, Corn (corn (Zea mays) [8]; 125 g ai/ha) | Plant response rating, Barnyardgrass ([9]; 31 g ai/ha, scale 0 to 100) | Plant response rating, Barnyardgrass ([9]; 62 g ai/ha, scale 0 to 100) | Plant response rating, Ducksalad ([10]; 31 g ai/ha) | Plant response rating, Rice (rice (Oryza sativa); 31 g ai/ha) | Plant response rating, Rice (rice (Oryza sativa); 62 g ai/ha) | Plant response rating, Rice (rice (Oryza sativa); 125 g ai/ha) | Plant response rating, Sedge, Umbrella ([11]; 31 g ai/ha) | Plant response rating, Pigweed ([12]; 125 g ai/ha) | Plant response rating, Crabgrass, Large ([13]; 125 g ai/ha) | Plant response rating, Crabgrass, Large ([13]; 500 g ai/ha) | Plant response rating, Foxtail, Giant ([14]; 125 g ai/ha) | Plant response rating, Foxtail, Giant ([14]; 500 g ai/ha) | Plant response rating, Morningglory ([15]; 125 g ai/ha) | Plant response rating, Barnyardgrass ([16]; 125 g ai/ha) | Plant response rating, Velvetleaf ([17]; 125 g ai/ha) | Plant response rating, Wheat ([18]; 125 g ai/ha) | Plant response rating, Wheat ([18]; 500 g ai/ha) | Plant response rating, Corn (corn (Zea mays) [19]; 125 g ai/ha) | Plant response rating, Corn (corn (Zea mays) [19]; 500 g ai/ha)
50: Plant response rating, Ducksalad ([10]; 125 g ai/ha) | Plant response rating, Sedge, Umbrella ([11]; 125 g ai/ha) | Plant response rating, Pigweed ([12]; 500 g ai/ha)
100: Plant response rating, Velvetleaf ([6]; 125 g ai/ha) | Plant response rating, Velvetleaf ([6]; 500 g ai/ha)
10: Plant response rating, Crabgrass, Large ([2]; 500 g ai/ha) | Plant response rating, Barnyardgrass ([9]; 125 g ai/ha, scale 0 to 100) | Plant response rating, Barnyardgrass ([16]; 500 g ai/ha)

CCCCn1c(-c2ccccc2)cnc(C(=O)C2=C(O)CCCC2=O)c1=O [Compound 1, 1-butyl-3-[(2-hydroxy-6-oxo-1-cyclohexen-1-yl)carbonyl]-6-phenyl-2(1H)-pyrazinone]
80: Plant response rating, Barnyardgrass ([5]; 500 g ai/ha) | Plant response rating, Barnyardgrass [9, 20] | Plant response rating, Barnyardgrass ([16]; 500 g ai/ha)
95: Plant response rating, Ducksalad ([10]; 250 g ai/ha) | Plant response rating, Sedge, Umbrella ([11]; 250 g ai/ha)
60: Plant response rating, Pigweed ([1]; 125 g ai/ha) | Plant response rating, Barnyardgrass ([9]; 62 g ai/ha, scale 0 to 100) | Plant response rating, Ducksalad ([10]; 62 g ai/ha) | Plant response rating, Pigweed ([12]; 125 g ai/ha)
40: Plant response rating, Foxtail, Giant ([3]; 500 g ai/ha) | Plant response rating, Morningglory ([4]; 125 g ai/ha) | Plant response rating, Crabgrass, Large ([13]; 500 g ai/ha)
70: Plant response rating, Rice (rice (Oryza sativa); 62 g ai/ha) | Plant response rating, Sedge, Umbrella ([11]; 62 g ai/ha) | Plant response rating, Morningglory ([15]; 500 g ai/ha)
100: Plant response rating, Pigweed ([1]; 500 g ai/ha) | Plant response rating, Morningglory ([4]; 500 g ai/ha) | Plant response rating, Velvetleaf ([6]; 125 g ai/ha) | Plant response rating, Velvetleaf ([6]; 500 g ai/ha) | Plant response rating, Pigweed ([12]; 500 g ai/ha) | Plant response rating, Velvetleaf ([17]; 500 g ai/ha)
30: Plant response rating, Foxtail, Giant ([14]; 500 g ai/ha)
0: Plant response rating, Wheat ([7]; 125 g ai/ha) | Plant response rating, Wheat ([7]; 500 g ai/ha) | Plant response rating, Corn (corn (Zea mays) [8]; 125 g ai/ha) | Plant response rating, Foxtail, Giant ([14]; 125 g ai/ha) | Plant response rating, Morningglory ([15]; 125 g ai/ha) | Plant response rating, Barnyardgrass ([16]; 125 g ai/ha) | Plant response rating, Wheat ([18]; 125 g ai/ha) | Plant response rating, Wheat ([18]; 500 g ai/ha) | Plant response rating, Corn (corn (Zea mays) [19]; 125 g ai/ha) | Plant response rating, Corn (corn (Zea mays) [19]; 500 g ai/ha)
85: Plant response rating, Rice (rice (Oryza sativa); 250 g ai/ha)
10: Plant response rating, Crabgrass, Large ([2]; 125 g ai/ha) | Plant response rating, Foxtail, Giant ([3]; 125 g ai/ha) | Plant response rating, Barnyardgrass ([5]; 125 g ai/ha) | Plant response rating, Corn (corn (Zea mays) [8]; 500 g ai/ha) | Plant response rating, Crabgrass, Large ([13]; 125 g ai/ha)
50: Plant response rating, Crabgrass, Large ([2]; 500 g ai/ha) | Plant response rating, Velvetleaf ([17]; 125 g ai/ha)
